# The source made the active and inactive calls. The rule behind the calls is not given here.
# Assays:
# P388 [1] = experiment: Antitumor activity against mouse P388 cells allografted in BDF1 mouse assessed as mouse survival at 50 mg/kg administered 24 hrs post challenge relative to control; assay type: functional, organism-based; design: dose 50 mg/kg
# P388 [2] = experiment: Antitumor activity against mouse P388 cells allografted in BDF1 mouse assessed as mouse survival at 25 mg/kg administered 24 hrs post challenge relative to control; assay type: functional, organism-based; design: dose 25 mg/kg
# P388 [3] = experiment: Antitumor activity against mouse P388 cells allografted in BDF1 mouse assessed as increase in survival time at 100 mg/kg administered 24 hrs post challenge relative to control; assay type: functional
# P388 [4] = experiment: Antitumor activity against mouse P388 cells allografted in BDF1 mouse assessed as increase in survival time at 50 mg/kg administered 24 hrs post challenge relative to control; assay type: functional
# P388 [5] = experiment: Antitumor activity against mouse P388 cells allografted in BDF1 mouse assessed as increase in survival time at 25 mg/kg administered 24 hrs post challenge relative to control; assay type: functional
# Mus musculus [6] = experiment: Toxicity in mouse P388 cells allografted BDF1 mouse assessed as body weight difference at 100 mg/kg administered 24 hrs post challenge relative to control; assay type: organism-based; design: dose 100 mg/kg; details: in vivo
# Mus musculus [7] = experiment: Toxicity in mouse P388 cells allografted BDF1 mouse assessed as body weight difference at 50 mg/kg administered 24 hrs post challenge relative to control; assay type: organism-based; design: dose 50 mg/kg; details: in vivo
# Mus musculus [8] = experiment: Toxicity in mouse P388 cells allografted BDF1 mouse assessed as body weight difference at 25 mg/kg administered 24 hrs post challenge relative to control; assay type: organism-based; design: dose 25 mg/kg; details: in vivo
# P388 [9] = experiment: Antitumor activity against mouse P388 cells allografted in BDF1 mouse assessed as mouse survival at 6.25 mg/kg administered 24 hrs post challenge relative to control; assay type: functional, organism-based; design: dose 6.25 mg/kg
# P388 [10] = experiment: Antitumor activity against mouse P388 cells allografted in BDF1 mouse assessed as increase in survival time at 12.5 mg/kg administered 24 hrs post challenge relative to control; assay type: functional
# P388 [11] = experiment: Antitumor activity against mouse P388 cells allografted in BDF1 mouse assessed as increase in survival time at 6.25 mg/kg administered 24 hrs post challenge relative to control; assay type: functional
# P388 [12] = experiment: Antitumor activity against mouse P388 cells allografted in BDF1 mouse assessed as increase in survival time at 3.13 mg/kg administered 24 hrs post challenge relative to control; assay type: functional
# P388 [13] = experiment: Antitumor activity against mouse P388 cells allografted in BDF1 mouse assessed as mouse survival at 3.13 mg/kg administered 24 hrs post challenge relative to control; assay type: functional, organism-based; design: dose 3.13 mg/kg
# Mus musculus [14] = experiment: Toxicity in mouse P388 cells allografted BDF1 mouse assessed as body weight difference at 12.5 mg/kg administered 24 hrs post challenge relative to control; assay type: organism-based; design: dose 12.5 mg/kg; details: in vivo
# Mus musculus [15] = experiment: Toxicity in mouse P388 cells allografted BDF1 mouse assessed as body weight difference at 6.25 mg/kg administered 24 hrs post challenge relative to control; assay type: organism-based; design: dose 6.25 mg/kg; details: in vivo
# Mus musculus [16] = experiment: Toxicity in mouse P388 cells allografted BDF1 mouse assessed as body weight difference at 3.13 mg/kg administered 24 hrs post challenge relative to control; assay type: organism-based; design: dose 3.13 mg/kg; details: in vivo
# P388 [17] = experiment: Antitumor activity against mouse P388 cells allografted in BDF1 mouse assessed as mouse survival at 100 mg/kg administered 24 hrs post challenge relative to control; assay type: functional, organism-based; design: dose 100 mg/kg
# P388 [18] = experiment: Antitumor activity against mouse P388 cells allografted in BDF1 mouse assessed as mouse survival at 12.5 mg/kg administered 24 hrs post challenge relative to control; assay type: functional, organism-based; design: dose 12.5 mg/kg
# P388 [19] = experiment: Antitumor activity against mouse P388 cells allografted in BDF1 mouse assessed as mouse survival at 32 mg/kg administered 24 hrs post challenge relative to control; assay type: functional, organism-based; design: dose 32 mg/kg
# P388 [20] = experiment: Antitumor activity against mouse P388 cells allografted in BDF1 mouse assessed as mouse survival at 16 mg/kg administered 24 hrs post challenge relative to control; assay type: functional, organism-based; design: dose 16 mg/kg
# P388 [21] = experiment: Antitumor activity against mouse P388 cells allografted in BDF1 mouse assessed as mouse survival at 8 mg/kg administered 24 hrs post challenge relative to control; assay type: functional, organism-based; design: dose 8 mg/kg
# P388 [22] = experiment: Antitumor activity against mouse P388 cells allografted in BDF1 mouse assessed as mouse survival at 4 mg/kg administered 24 hrs post challenge relative to control; assay type: functional, organism-based; design: dose 4 mg/kg
# P388 [23] = experiment: Antitumor activity against mouse P388 cells allografted in BDF1 mouse assessed as increase in survival time at 32 mg/kg administered 24 hrs post challenge relative to control; assay type: functional
# P388 [24] = experiment: Antitumor activity against mouse P388 cells allografted in BDF1 mouse assessed as increase in survival time at 16 mg/kg administered 24 hrs post challenge relative to control; assay type: functional
# P388 [25] = experiment: Antitumor activity against mouse P388 cells allografted in BDF1 mouse assessed as increase in survival time at 8 mg/kg administered 24 hrs post challenge relative to control; assay type: functional
# P388 [26] = experiment: Antitumor activity against mouse P388 cells allografted in BDF1 mouse assessed as increase in survival time at 4 mg/kg administered 24 hrs post challenge relative to control; assay type: functional
# Mus musculus [27] = experiment: Toxicity in mouse P388 cells allografted BDF1 mouse assessed as body weight difference at 32 mg/kg administered 24 hrs post challenge relative to control; assay type: organism-based; design: dose 32 mg/kg; details: in vivo
# Mus musculus [28] = experiment: Toxicity in mouse P388 cells allografted BDF1 mouse assessed as body weight difference at 16 mg/kg administered 24 hrs post challenge relative to control; assay type: organism-based; design: dose 16 mg/kg; details: in vivo
# Mus musculus [29] = experiment: Toxicity in mouse P388 cells allografted BDF1 mouse assessed as body weight difference at 8 mg/kg administered 24 hrs post challenge relative to control; assay type: organism-based; design: dose 8 mg/kg; details: in vivo
# Mus musculus [30] = experiment: Toxicity in mouse P388 cells allografted BDF1 mouse assessed as body weight difference at 4 mg/kg administered 24 hrs post challenge relative to control; assay type: organism-based; design: dose 4 mg/kg; details: in vivo
# L1210 [31] = experiment: Antitumor activity against mouse L1210 cells allografted in BDF1 mouse assessed as increase in survival time at 25 mg/kg administered 24 hrs post challenge relative to control; assay type: functional
# L1210 [32] = experiment: Antitumor activity against mouse L1210 cells allografted in BDF1 mouse assessed as increase in survival time at 12.5 mg/kg administered 24 hrs post challenge relative to control; assay type: functional
# L1210 [33] = experiment: Antitumor activity against mouse L1210 cells allografted in BDF1 mouse assessed as increase in survival time at 6.25 mg/kg administered 24 hrs post challenge relative to control; assay type: functional
# P388 [34] = experiment: Antitumor activity against mouse P388 cells allografted in BDF1 mouse assessed as increase in survival time at 200 mg/kg administered 24 hrs post challenge relative to control; assay type: functional
# P388 [35] = experiment: Antitumor activity against mouse P388 cells allografted in BDF1 mouse assessed as increase in survival time at 400 mg/kg administered 24 hrs post challenge relative to control; assay type: functional
# P388 [36] = experiment: Antitumor activity against mouse P388 cells allografted in BDF1 mouse assessed as mouse survival at 400 mg/kg administered 24 hrs post challenge relative to control; assay type: functional, organism-based; design: dose 400 mg/kg
# P388 [37] = experiment: Antitumor activity against mouse P388 cells allografted in BDF1 mouse assessed as mouse survival at 200 mg/kg administered 24 hrs post challenge relative to control; assay type: functional, organism-based; design: dose 200 mg/kg
# Mus musculus [38] = experiment: Toxicity in mouse P388 cells allografted BDF1 mouse assessed as body weight difference at 400 mg/kg administered 24 hrs post challenge relative to control; assay type: organism-based; design: dose 400 mg/kg; details: in vivo
# Mus musculus [39] = experiment: Toxicity in mouse P388 cells allografted BDF1 mouse assessed as body weight difference at 200 mg/kg administered 24 hrs post challenge relative to control; assay type: organism-based; design: dose 200 mg/kg; details: in vivo
SMILES,Activity (P388 [1]),Activity (P388 [2]),T/C (P388 [3]) [%],T/C (P388 [4]) [%],T/C (P388 [5]) [%],Activity (Mus musculus [6]) [g],Activity (Mus musculus [7]) [g],Activity (Mus musculus [8]) [g],T/C (P388 [10]) [%],Activity (Mus musculus [14]) [g],Activity (P388 [17]),also measured
O=C1c2ccccc2C(=O)c2c(NCCNCCNCCO)ccc(NCCNCCNCCO)c21,Active,Active,120,112,110,-2.6,-1.3,-1.6,,,,
CCNCCNc1ccc(NCCNCC)c2c1C(=O)c1ccccc1C2=O,,,,,132,,,-4.8,168,-2.8,,Activity (P388 [9]): Active; T/C (P388 [11]): 149%; T/C (P388 [12]): 142%; Activity (P388 [13]): Active; Activity (Mus musculus [15]): -2.2 g; Activity (Mus musculus [16]): -2.3 g
CCCNCCNc1ccc(NCCNCCC)c2c1C(=O)c1ccccc1C2=O,Active,Active,124,125,118,-2.6,-1.7,-0.8,,,Active,
CNCCNc1ccc(NCCNC)c2c1C(=O)c1ccccc1C2=O,,,,,,,,,200,-1.9,,Activity (P388 [18]): Active
O=C1c2ccccc2C(=O)c2c(NCCCNCCO)ccc(NCCCNCCO)c21,Active,,98,133,130,-2.6,-2.1,-2.1,117,-1.4,,Activity (P388 [18]): Active; Activity (P388 [9]): Active; T/C (P388 [11]): 101%; Activity (Mus musculus [15]): 0.9 g
O=C1c2ccccc2C(=O)c2c(NCCN3CCNCC3)ccc(NCCN3CCNCC3)c21,,Active,,134,137,,-2.7,-1,117,-1.1,,Activity (P388 [18]): Active; Activity (P388 [9]): Active; T/C (P388 [11]): 125%; Activity (Mus musculus [15]): -0.4 g
O=C1c2ccccc2C(=O)c2c(NCCNCCO)ccc(NCCNCCO)c21 [AMETANTRONE],,,,,,,,,,,,Activity (P388 [19]): Active; Activity (P388 [20]): Active; Activity (P388 [21]): Active; Activity (P388 [22]): Active; T/C (P388 [23]): 81%; T/C (P388 [24]): 275%; T/C (P388 [25]): 276%; T/C (P388 [26]): 275%; Activity (Mus musculus [27]): -5.9 g; Activity (Mus musculus [28]): -3.9 g; Activity (Mus musculus [29]): -2 g; Activity (Mus musculus [30]): 0 g; T/C (L1210 [31]): 272%; T/C (L1210 [32]): 227%; T/C (L1210 [33]): 156%
O=C1c2ccccc2C(=O)c2c(NCCCCCO)ccc(NCCCCCO)c21,Active,Active,88,78,88,-4,-1.5,-1.4,,,Active,
O=C1c2ccccc2C(=O)c2c(NCCSCCO)ccc(NCCSCCO)c21,Active,Active,94,86,95,-2.2,-1.4,-1.6,,,Active,
COc1ccc(CCNc2ccc(NCCc3ccc(OC)c(OC)c3)c3c2C(=O)c2ccccc2C3=O)cc1OC,,,86,,,-1.7,,,,,Active,T/C (P388 [34]): 101%; T/C (P388 [35]): 91%; Activity (P388 [36]): Active; Activity (P388 [37]): Active; Activity (Mus musculus [38]): -2.9 g; Activity (Mus musculus [39]): -3.2 g
O=C1c2ccccc2C(=O)c2c3c(cc(NCCNCCO)c21)N(CCO)CCN3,,Active,101,163,155,-3.8,-3.5,-3.2,,,,
O=C1c2ccccc2C(=O)c2c(NCCN3CCCCC3)ccc(NCCN3CCCCC3)c21,Active,Active,128,110,104,-4.5,-2.9,-3.6,,,Active,
